Measured values published in patent US10983112B2, “Bile acid biomarkers for Niemann-Pick diseases, methods and uses therefor” (Washington University, priority 2014, dated 2021).

Legend:
[1] = rat; cited from earlier work
Hep G2 cells = assay: Biosynthesis of bile acids from cholestane-3β,5α,6β-triol in Hep G2 cells; assay type: in vitro ADME, human; conditions: 2.5 ng/mL, 24 h, conditioned medium
Experimental: To explore the biosynthetic route of the bile acids, the human hepatoblastoma-derived cell line Hep G2 was incubated with cholestane-3β,5α,6β-triol and 7,7,22,22,22-d4-cholestane-3β,5α,6β-triol. Hep G2 cells (1×10^6 cells/well) were seeded in a 6-well plate in triplicate and maintained in Dulbecco's modified Eagle's medium supplemented with 15% fetal calf serum and 100 U of penicillin G/mL and […] streptomycin sulfate at 37° C. in a humidified atmosphere with 5% CO2. Hep G2 cells were treated when they were 80% confluent. For the treatment, 100× stock solutions were made in DMSO for triol and d4-triol. DMSO concentration never exceeded 1% in the culture medium. […] The supernatant was transferred to a glass HPLC insert and analyzed immediately after preparation by the LC-MS/MS.
LC-MS/MS analysis was conducted on a Shimadzu (Columbia, Md.) Prominence UFLC system coupled with an Applied Biosystems/MDS Sciex (Ontario, Canada) 4000QTRAP mass spectrometer using multiple reaction monitoring (MRM). […] Data were acquired and analyzed by Analyst software (version 1.5.2). […] FIG. 40 depicts synthetic bile acid A detected by MRM transition m/z 407→407. FIG. 41 depicts bile acid A generated from cholestane-3β,5α,6β-triol in HepG2 cells and detected by MRM transition m/z 407→407. […]

[2] = Sample stability of bile acid B in dried blood spots, whole blood, processed samples, stock and working solutions; assay type: physicochemical
Experimental: Sample stability. The storage stability of dried blood spots and processed sample stabilities in the autosampler were determined at the LQC and HQC concentration levels (n=3). Storage stability of bile acid B in dried blood spots was tested at −20° C. and room temperature for 66 days, and at 37° C. for 90 hours. In the autosampler, stability was tested over seven days by injecting the first batch of the validation samples. The LQC and HQC in whole blood were placed on benchtop at room temperature for 27 hours and then spotted onto newborn screening cards to examine stability of bile acid B in whole blood. Stock solution stability was established by quantification of samples from dilution of two stock solutions that have been stored at −20° C. for 91 days and at room temperature on the bench for 22 hours, respectively, to the final solution (500 ng/mL in water). The storage stability of internal standard working solution was tested at room temperature for 12 days. A fresh standard curve was established each time. Bile acid B was stable in dried blood spots in newborn screening cards for up to 66 days at room temperature storage.
Stability in whole blood, dried blood spots, processed samples, stock and working solutions. The allowable time bile acid B spiked whole blood sample can remain at room temperature prior to spoiling on a newborn screening card was determined with LQC and HQC blood samples, which were remained at room temperature for 27 hours prior to spotting. Three replicates were assessed and the accuracy (within ±4.5% RE) and precision (<7.5% CV) were within the quality control acceptance criteria stated above. Bile acid B is therefore considered stable in whole blood for 27 hours prior to spotting.
The stability of bile acid B in dried blood spots on the newborn screening cards stored at room temperature and −20° C. for 66 days and at 37° C. for 90 hours was assessed by comparisons of three replicates of stored LQC and HQC against freshly prepared calibration standards and QC samples. […] Processed sample stability was assessed by re-injection of LQC and HQC together with calibration curve from one accuracy/precision run after storage in the autosampler at 4° C. for 7 days.
Stock solution stability of bile acid B and internal standard in acetonitrile-water (1:1) was established for 22 hours at room temperature. The internal standard in aqueous working solution (1% sodium dodecyl sulfate (SDS) and 50 mM trisodium citrate at pH 12) was stable for 12 days at room temperature.

| SMILES | metabolite of cholestane-3β,5α,6β-triol [1] | formation from cholestane-3β,5α,6β-triol or d4-triol (Hep G2 cells) | stock solution stability ([2]; acetonitrile-water (1:1), room temperature) | processed sample stability ([2]; autosampler at 4° C. for 7 days) | stability in dried blood spots on newborn screening cards ([2]; room temperature) | stability in whole blood prior to spotting ([2]; room temperature, LQC and HQC) | stability in dried blood spots on newborn screening cards ([2]; room temperature, listed as bile acid B) | stability in dried blood spots on newborn screening cards ([2]; shipping conditions (37° C.)) | stability in dried blood spots on newborn screening cards ([2]; −20° C.) |
| --- | --- | --- | --- | --- | --- | --- | --- | --- | --- |
| C[C@H](CCC(=O)O)[C@H]1CCC2C3C[C@@H](O)[C@@]4(O)C[C@@H](O)CC[C@]4(C)C3CC[C@@]21C (stereo partly drawn) [Bile acid A, 3β,5α,6β-trihydroxycholanic acid] | major metabolite |  |  |  |  |  |  |  |  |
| C[C@H](CCC(=O)NCC(=O)O)[C@H]1CC[C@H]2[C@@H]3C[C@@H](O)[C@@]4(O)C[C@@H](O)CC[C@]4(C)[C@H]3CC[C@]12C [Bile acid B, N-(3β,5α,6β-trihydroxy-cholan-24-oyl)glycine] |  | No bile acid B was found | 22 h | Stability was demonstrated | up to 66 days | 27 h | at least 66 days | 90 h | at least 66 days |
